Results published in US8916526B2, “Flavanone derivative” (National University Corporation Okayama University, priority 2009, dated 2014).
≈ marks a conversion by molar mass, not a printed value.

Legend:
[1] = target: T1, E. coli DNA gyrase (Escherichia coli, UniProt P0AES4+P0AES6); assay: DNA gyrase inhibition (supercoiling kit), Exp. Ex. 2-2; type: biochemical
T1 construct: purchased John Innes Enterprises #K0001
Summary of the method: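 Supercoiling of relaxed pBR322 DNA ([…]) by 1 U E. coli gyrase, 37° C for 30 minutes, in 35 mM Tris-HCl pH 7.5 with 1 mM ATP, 4 mM MgCl2, 24 mM KCl, spermidine and DTT. Products resolved by electrophoresis to derive IC50.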

[2] = tested on: Streptococcus pneumoniae R6; assay: In vitro infectivity assay (MIC), Exp. Ex. 2-1; type: cell-based; conditions: Streptococcus pneumoniae, R6; Gram-positive; microdilution, MIC after 24 h; read-out: MIC S. Pneumoniae R6
[3] = tested on: Methicillin-resistant S. aureus COL; assay: In vitro infectivity assay (MIC), Exp. Ex. 2-1; type: cell-based, Staphylococcus aureus; conditions: Staphylococcus aureus, MRSA; Gram-positive; microdilution, MIC after 24 h
[4] = target: T2, Escherichia coli Topoisomerase IV (Escherichia coli, UniProt P0AFI2+P20083); assay: Topoisomerase IV inhibition (decatenation kit), Exp. Ex. 2-3; type: biochemical; conditions: decatenation of kDNA, 37° C., 30 minutes; read-out: IC50 (E. coli topoisomerase IV inhibitions)
T2 construct: purchased John Innes Enterprises
T2 sequence (P20083 whole entry): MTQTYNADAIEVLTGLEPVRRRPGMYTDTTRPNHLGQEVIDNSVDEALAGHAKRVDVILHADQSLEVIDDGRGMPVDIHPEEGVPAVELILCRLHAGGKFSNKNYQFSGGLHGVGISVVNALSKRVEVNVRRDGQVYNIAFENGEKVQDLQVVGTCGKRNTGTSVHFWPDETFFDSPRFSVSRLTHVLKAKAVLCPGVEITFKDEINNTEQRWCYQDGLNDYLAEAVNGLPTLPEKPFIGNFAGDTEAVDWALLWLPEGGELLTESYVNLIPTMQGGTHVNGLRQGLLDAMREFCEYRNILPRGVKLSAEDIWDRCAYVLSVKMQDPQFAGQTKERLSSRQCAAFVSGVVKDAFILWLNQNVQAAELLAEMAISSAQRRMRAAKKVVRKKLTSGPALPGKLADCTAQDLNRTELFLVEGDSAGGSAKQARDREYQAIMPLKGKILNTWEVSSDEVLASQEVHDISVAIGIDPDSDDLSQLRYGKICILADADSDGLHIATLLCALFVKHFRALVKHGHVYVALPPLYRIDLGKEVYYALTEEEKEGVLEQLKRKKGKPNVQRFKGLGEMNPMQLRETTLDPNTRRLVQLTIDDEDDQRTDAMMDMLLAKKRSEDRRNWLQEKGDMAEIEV
T2 sequence (P0AFI2 whole entry): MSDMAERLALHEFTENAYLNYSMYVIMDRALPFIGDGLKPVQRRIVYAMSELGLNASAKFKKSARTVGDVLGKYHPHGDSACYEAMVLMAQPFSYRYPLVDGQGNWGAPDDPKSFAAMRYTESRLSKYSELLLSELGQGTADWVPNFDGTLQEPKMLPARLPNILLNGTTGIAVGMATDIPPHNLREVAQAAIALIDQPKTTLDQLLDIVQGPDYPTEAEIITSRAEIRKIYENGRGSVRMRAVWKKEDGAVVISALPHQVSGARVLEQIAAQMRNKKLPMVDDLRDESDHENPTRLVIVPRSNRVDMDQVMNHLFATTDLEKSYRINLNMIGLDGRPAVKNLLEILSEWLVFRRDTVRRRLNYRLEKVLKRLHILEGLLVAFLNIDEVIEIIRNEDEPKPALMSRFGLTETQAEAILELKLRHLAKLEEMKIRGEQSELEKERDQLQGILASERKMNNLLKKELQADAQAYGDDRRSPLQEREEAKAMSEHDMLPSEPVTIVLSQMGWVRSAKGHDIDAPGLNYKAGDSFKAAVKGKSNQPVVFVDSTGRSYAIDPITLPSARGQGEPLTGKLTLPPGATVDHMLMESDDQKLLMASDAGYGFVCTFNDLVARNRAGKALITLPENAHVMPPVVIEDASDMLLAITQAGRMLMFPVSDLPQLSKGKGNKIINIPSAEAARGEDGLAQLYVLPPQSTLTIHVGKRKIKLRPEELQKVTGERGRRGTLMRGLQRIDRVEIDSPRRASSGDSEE
Summary of the method: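 Decatenation of 200 ng kinetoplast DNA by 1 unit enzyme, 30 min at 37 °C. S. aureus: 50 mM Tris-HCl pH 7.5, 350 mM potassium glutamate, 1.5 mM ATP; E. coli: 50 mM HEPES-KOH pH 7.6, 100 mM potassium glutamate, 1 mM ATP. Products resolved on 1.0% agarose in TAE.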

[5] = tested on: Pseodomonas aeruginosa PAOI; assay: Antibacterial activity (MIC) against Gram-negative strains, microdilution; type: cell-based; conditions: MIC after 24 h, read-out: MIC (Gram-nagative) PAO1
Summary of the method: (§1)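 CLSI broth microdilution in Mueller-Hinton broth with 0.85% NaCl, inoculum about 10^5 […]. Incubated 35° C for 24 hours; MIC taken as the minimum inhibitory concentration, measured three times.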

[6] = tested on: Escherichia coli K-12; assay: as above; type: cell-based; conditions: K12, MIC after 24 h, read-out: MIC (Gram-nagative) K-12
Summary of the method: as §1

T1 sequence (P0AES4 whole entry, one chain of several): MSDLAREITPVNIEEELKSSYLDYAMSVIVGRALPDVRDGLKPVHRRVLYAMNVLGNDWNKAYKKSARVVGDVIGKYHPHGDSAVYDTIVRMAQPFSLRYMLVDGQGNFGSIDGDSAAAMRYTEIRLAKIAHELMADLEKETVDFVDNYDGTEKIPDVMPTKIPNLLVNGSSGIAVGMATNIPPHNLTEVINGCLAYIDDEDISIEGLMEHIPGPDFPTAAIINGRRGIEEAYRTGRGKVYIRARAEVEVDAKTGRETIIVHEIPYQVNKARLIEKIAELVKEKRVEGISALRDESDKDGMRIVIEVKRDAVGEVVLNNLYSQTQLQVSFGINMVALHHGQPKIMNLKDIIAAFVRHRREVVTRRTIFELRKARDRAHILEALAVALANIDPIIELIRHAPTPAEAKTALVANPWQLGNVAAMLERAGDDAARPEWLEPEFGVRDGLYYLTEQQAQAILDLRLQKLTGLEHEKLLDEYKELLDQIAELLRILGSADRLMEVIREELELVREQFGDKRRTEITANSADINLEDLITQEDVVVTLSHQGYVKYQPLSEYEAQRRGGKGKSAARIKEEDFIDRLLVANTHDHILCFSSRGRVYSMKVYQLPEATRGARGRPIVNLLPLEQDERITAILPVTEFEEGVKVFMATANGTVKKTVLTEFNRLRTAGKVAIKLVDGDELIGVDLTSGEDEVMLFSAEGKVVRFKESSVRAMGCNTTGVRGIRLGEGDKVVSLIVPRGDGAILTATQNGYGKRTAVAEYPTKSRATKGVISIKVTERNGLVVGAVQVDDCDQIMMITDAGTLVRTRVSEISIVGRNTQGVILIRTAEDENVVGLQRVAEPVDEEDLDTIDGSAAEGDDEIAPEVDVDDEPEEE

SMILES: O=c1c(O)c(-c2ccc(O)c(O)c2)oc2cc(O)cc(O)c12 [Quercetin, quercetin, reference compound]
- IC50 [1]: 0.14 µM
- MIC [2]: > 128 µg/mL
- MIC [3]: > 128 µg/mL
- IC50 [4]: 4.42 µM
- MIC [5]: > 128 µg/mL
- MIC [6]: 64 µg/mL (≈ 212 µM)
